Experimental data reported in ChEMBL document CHEMBL3507680, “University of Dundee, Gates Library screen for HepG2 cell viability”.

Assay: Human HepG2 cell viability assay in 384 well format
Assay type: toxicity, cell-based
Design: dose 125 nL, time 70.5 hour; cytotoxicity at 70.5 h: concentration not given beside the values
Conditions: HepG2 cells, read-out: Inhibition

SMILES | cytotoxicity at 70.5 h
CCN(CC(=O)NC)C(=O)Cc1nc(-c2ccco2)oc1C | -7.15%
CCc1cnc(CCNC(C)CC(=O)Nc2cccc(C)c2C)s1 (stereo not drawn) | -5.98%
COc1cccc(CN(C)CCCn2cnc3c(N)ncnc32)c1 | -9.38%
CC(C)(CNc1cn[nH]c(=O)c1Cl)c1ccc2c(c1)OCCO2 | -13.9%
CCc1noc(CN(C)CCC(=O)Nc2ccc(C#N)c(Cl)c2)n1 | 0.733%
Cc1cccc(Nc2nccnc2C2CCCN2CC(=O)N(C)C)n1 (stereo not drawn) | 18.8%
O=C(NCc1cc2ccccc2[nH]1)C1CCCN(C(=O)N2CCCC2)C1 (stereo not drawn) | -3.92%
O=C(NCc1cc2n(n1)CCCN(Cc1ccc(CO)o1)C2)C1CCC1 | 18.2%
CCCc1ncc(CN(C)C2CCCN(CCc3ccccc3)C2)cn1 (stereo not drawn) | -4.41%
Cn1cc(C(=O)N2CC[C@@]3(O)CCN(C4CCCCC4)C[C@H]3C2)cn1 | -2.94%
COCCS(=O)(=O)Cc1csc(NC(C)=O)n1 | -16%
CC(NC(=O)C1=NN(C)C(=O)CC1)c1ccc(F)cc1F (stereo not drawn) | 20%
CCn1ncc2c1NC(=O)CC2c1cnc(NCc2ccccc2)nc1 (stereo not drawn) | 14.7%
CC(=O)C(Cc1ccccc1)NC(=O)CSc1nncn1C (stereo not drawn) | -5.49%
Cc1ccc(-c2cc(CN(CC(N)=O)CC(C)C)on2)cc1 | -2.81%
CC(C)c1noc(-c2ccc(NCC3CCCOC3)nc2)n1 (stereo not drawn) | -12.4%
CCN1CCC2(C=C(C(=O)NC3CC3)c3ccccc32)CC1 | -3.64%
CNC(=O)[C@H]1C[C@@H]2CN(S(=O)(=O)Cc3ccccc3)C[C@@H]2N1C | -3.87%
O=C(NCC1(O)CCOCC1)c1ccn(-c2ccccc2F)n1 | -9.56%
Cc1cc(NCC2CCCCC2)n2ncnc2n1 | -2.65%
Cc1c(S(=O)(=O)N(CCc2ccccc2)Cc2ccn(C)n2)cnn1C | -8.56%
O=C(CN1CCCC(c2ccn[nH]2)C1)Nc1nc2c(s1)CCC2 (stereo not drawn) | -2.76%
c1cnc(N2CCOCC3(CCCN(Cc4cccs4)C3)C2)nc1 (stereo not drawn) | 19.9%

SMILES | cytotoxicity at 70.5 h
Cc1nc(C)n(CC2CCCN(Cc3ccc(F)cc3C#N)C2)n1 (stereo not drawn) | -1.49%
Cc1cc(CN2C[C@@H]3CCCO[C@@H]3[C@H](NS(C)(=O)=O)C2)no1 | -1.78%
COC(=O)c1ccc(N2CCN(C(=O)C(C)C)C(C)C2)cc1 (stereo not drawn) | 26.6%
Cc1cc(C)n(CC(=O)N2CCCCC2CCN(C)C)c(=O)n1 (stereo not drawn) | -7.91%
CCN(CC)C(=O)N1CCN(C2=NCC(C)S2)CC1 (stereo not drawn) | -9.33%
CCCN(Cc1cccnc1)C(=O)C1CCN(Cc2ccco2)CC1 | -2.7%
CN(C)c1cccc(C(=O)N2CCc3ccc(=O)[nH]c3CC2)c1 | -6.59%
Cc1ccc(-n2nnc(CC(=O)N3CCSCC3)c2C)cc1 | -12.8%
Cc1ccc(NC(=O)c2ccc(N3CCCCC3)nn2)c(Cl)c1 | 3.33%
CN1CCCN(c2ncnc(N3CCOCC3)c2N)CC1 | -6.57%
CCOCc1cnc2n1CCN(C(=O)Cc1ccco1)C2C (stereo not drawn) | -6.58%
COCc1ncn(Cc2nc(-c3ccc(OC)cc3F)oc2C)n1 | 51.2%
CN1CCC(N(Cc2ccncc2)C(=O)COCC2CCCCO2)CC1 (stereo not drawn) | -1.65%
CC(C)c1nc(C2CCCN(C(=O)c3cccc4c3OCO4)C2)no1 (stereo not drawn) | -1.62%
O=C(c1ccsc1)N1C[C@H]2CCC[C@@]2(COCc2cccnc2)C1 | 22.5%
O=C(NCc1cccc(N2CC=CC2)c1)NCC(F)(F)F | -2.26%
Cc1ccccc1OCCC(=O)NC(C)c1nnc2n1CCCCC2 (stereo not drawn) | -2.91%
O=S(=O)(NCC1OCCc2cn(CC3CCOCC3)nc21)C1CC1 (stereo not drawn) | -3.73%
COc1coc(CN2CCCC(CCc3c(F)cccc3F)C2)cc1=O (stereo not drawn) | -2.32%
CCn1cc(CN(C)S(=O)(=O)c2ccccc2)cn1 | -6.94%
Cn1cc(N2C[C@@H]3CN(S(=O)(=O)C4CC4)C[C@@H]3C2=O)cn1 | 2.74%
COc1ccccc1C(C)NC(=O)N1CCC(n2cncn2)CC1 (stereo not drawn) | -7.85%
CN1CC2(CCN(CCCOCc3ccccc3)CC2)OC1=O | -9.74%

SMILES | cytotoxicity at 70.5 h
Cc1cccc(NC(=O)[C@@H]2CCCN2Cc2nnc(C(C)C)n2C)n1 | -1.83%
CC(C)CCC(=O)N1CCC2(CC1)OCCO2 | -4.64%
CC(NC1CCN(CC(=O)N(C)C)CC1)c1cnn(C(C)C)c1 (stereo not drawn) | -14.3%
COc1cccc(CN(Cc2ccco2)Cc2cnc(C)n2C)c1 | 3.46%
Cc1ccccc1CN1CCN(C(=O)c2cnc(C3CC3)[nH]c2=O)CC1 | 7.92%
CCC[C@H]1CN(S(=O)(=O)c2ccc(CC)s2)C[C@@H]1N | 18.1%
Cc1ccc(C(=O)NCCCNS(C)(=O)=O)cc1C | -9.61%
O=C(c1ccc(-c2cccc3c2CCNC3)o1)N1CCCC1 | -9.64%
CC(C)NC(=O)N1CCC2(COCc3cnc(N4CCOCC4)nc32)C1 (stereo not drawn) | 2.23%
CC(=O)N1CCN(C(=O)CN2CCc3c(ncn3C3CC3)C2)CC1 | 6.66%
O=S(=O)(NCCCn1cncn1)c1ccc2c(c1)CCCC2 | -5.74%
CN(C)CCN(Cc1ccsc1)C(=O)C1=NNC(=O)CC1 | -9.01%
Nc1cnn(CC(=O)N2CCCCC2)c1 | 3.95%
CCN(C(=O)C1=NN(c2ccccc2)C(=O)CN1)c1ccccc1 | -2.62%
COCCN1C(=O)CO[C@H]2CN(Cc3ccccc3OC)C[C@H]21 | -13.3%
CC(O)CN(CC(=O)NC(=O)NC1CC1)c1ccccc1 (stereo not drawn) | -11%
CN(C)CCN(C)C(=O)NC1CCC(Oc2ccccc2C#N)CC1 (stereo not drawn) | -4.89%
NC(=O)c1cnn2c1NCC(CNCCc1ccco1)C2 (stereo not drawn) | -1.07%
COc1ccc(NC(=O)c2ccccc2NCc2ncnn2C)cc1 | -19.9%
Cn1ccc(CN2CCCC23CCN(Cc2cccc(F)c2)CC3)n1 | 0.351%
Cc1ccc([C@@H]2CN(S(=O)(=O)c3cc(C)ccc3F)C[C@H]2N(C)C)cc1 | -8.32%
COc1cccc(COCC(=O)N2CCCC(n3ccnc3)C2)c1 (stereo not drawn) | -11.9%
O=C(Nc1nc2c(s1)CNCC2)C1CC1 | 26.7%

SMILES | cytotoxicity at 70.5 h
COc1ccc(S(=O)(=O)NCC(C)(O)c2cccs2)cc1Cl (stereo not drawn) | -10.5%
N#Cc1ccc(N2CCN(C(=O)c3cc(C4CC4)[nH]n3)CC2)c(F)c1 | -8.69%
CCN1C(=O)CC(N(C)Cc2nc3ccccc3c(=O)[nH]2)C1=O (stereo not drawn) | -7.75%
CC(NC(=O)NCCCOc1ccccc1F)c1nncn1C (stereo not drawn) | -7.39%
CN(Cc1cccs1)c1nc2c(cnn2C(C)(C)C)c(=O)[nH]1 | -6.5%
Cc1cnn(CC2CCCN2C(=O)c2ccc3nnc(C)n3c2)c1 (stereo not drawn) | -1.07%
CCCc1nc(C(=O)N2C[C@H](CO)C[C@H](CN3CCOCC3)C2)cs1 | -8.72%
CCSC1=Nc2c(cnn2-c2ccc(Cl)cc2)C2=NCCCN12 | -7.4%
CCNC(=O)NC(C)(C)C(=O)NCCc1csc2ccccc12 | 2.01%
Cc1cc(CN2CC[C@H]3C[C@H](C(=O)N4CCC(C)CC4)O[C@H]3C2)no1 | -9.04%
Cc1nnc(CN2CCN(Cc3nccn3C)CC2)n1C | -8.45%
O=C(COCC1CC1)N1CCN(C(=O)Cc2ccccn2)CC1 | -1.46%
O=C(NCCn1nc(C2CCNC2)c2cccnc21)C1CCC1 (stereo not drawn) | 2.22%
CC(=O)N1CCC(c2ncc(C(=O)Nc3ccc(F)cc3)c(C)n2)CC1 | 12.6%
Fc1cccc(-n2ccc(CN3CCCC3Cn3cccn3)n2)c1 (stereo not drawn) | -14.3%
Cc1nonc1N1CCN(Cc2nc(CC3CC3)no2)CC1 | -2.56%
CCN(Cc1cccnc1)C1CCN(c2ccccc2)C1=O (stereo not drawn) | -3.8%
O=C(c1cccn1Cc1cccs1)N1CCCC1Cn1cccn1 (stereo not drawn) | -20.8%
Cc1ccn2ncc(C(=O)N3CCCC(c4noc(C)n4)C3)c2n1 (stereo not drawn) | 14.9%
COC(=O)c1ccc2ccn(CC3COCCO3)c(=O)c2c1 (stereo not drawn) | -8.18%
CCN1CCCc2cc(-c3cncn3C(C)CN3CCOCC3)ccc21 (stereo not drawn) | -4.04%
CCC[C@H]1CN(Cc2ccc(N(C)C)nc2)C[C@@H]1NC(=O)CCOC | -10.3%
O=S(=O)(C1CC1)N1CCC2(CC1)CC(Oc1cccnc1)CO2 (stereo not drawn) | -11.5%

SMILES | cytotoxicity at 70.5 h
O=C1NCCCCC1NC(=O)C1(c2ccc3c(c2)OCCO3)CCCC1 (stereo not drawn) | 27.7%
Cn1cc(N2CCC3(CCN(C(=O)c4cccn4C)C3)C2=O)cn1 (stereo not drawn) | -6.34%
CCC1C(=O)NCCN1c1nccc(C)n1 (stereo not drawn) | 45.2%
O=C(NCCOc1ncc(Cl)cc1Cl)c1cccnc1 | 8.03%
COCCn1/c(=N\C(=O)CN(C)S(C)(=O)=O)sc2cc(Cl)ccc21 | 17%
O=C(c1ncc[nH]1)N1CCC(n2cc(-c3cccc(Cl)c3)nn2)CC1 | 8.61%
CCNc1cc2c(nn1)CCN(C(=O)c1cccc3c1OCCO3)C2 | -9.67%
O=C(CN1C(=O)CCC1=O)N1CCOC2(CCOCC2)C1 | 29.6%
CC(C)[C@@H]1CN(C(=O)c2ccsc2)C[C@H]1C(=O)O | -6.74%
O=C(c1ccc(Cl)s1)N1CCC2(COc3ncccc3S(=O)(=O)N2)C1 (stereo not drawn) | -8.51%
O=C(c1cccs1)N1CCCC2(COCCN(c3cccnc3)C2)C1 (stereo not drawn) | -6.3%
CN(C)c1nccc(N(C)C2CCN(CC3CCOC3)CC2)n1 (stereo not drawn) | -4.93%
Cc1ccccc1C1(CN)CCCCC1 | 10.6%
COc1ccc(OC)c(-n2cnnc2CCN)c1 | -4.57%
COc1ccc(-c2nc(C3CCNCC3)cc3c2ncn3C)cc1 | 11.7%
O=C(c1ccncn1)N1CCC[C@]2(C[C@H](Oc3ncccc3F)CO2)C1 | 23.2%
CCCn1nc(C)c(CNS(=O)(=O)NCc2ccccc2)c1C | -12.7%
Cc1nn(C)c(C)c1CN(Cc1cccn1-c1ccccn1)C(C)C | 9.47%
O=C(O)c1cnc(N2CCC(O)CC2)nc1COc1ccc(F)cc1 | -21.6%
c1ccc(CN2CC[C@]3(C[C@@H](Oc4ccccn4)CO3)C2)nc1 | 19.9%
CCN(CC1CCOC1)C(=O)Nc1ccc(-n2cncn2)nc1 (stereo not drawn) | -9.69%
